Experimental data published in ChEMBL document CHEMBL1201862, “PubChem BioAssay data set” (2004).
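Cultured in 96-well plates, cells were exposed to test compound for 48 hours across five concentrations. Here, GI50 denotes the concentration required for 50% inhibition of growth.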 The source made the active and inactive calls. Cut-off read from the data, not from the text of the source: active = GI50 up to about 1.1 µM and inactive = higher.

Key:
Assay in all cases: NCI tumour cell line growth inhibition, 48 h
HL-60 = test system: HL-60
CCRF-CEM = test system: CCRF-CEM
K562 = test system: K562
LOX IMVI = test system: LOX IMVI
HT-29 = test system: HT-29
RPMI-8226 = test system: RPMI-8226
ACHN = test system: ACHN
UO-31 = test system: UO-31
SNB-19 = test system: SNB-19
IGROV-1 = test system: IGROV-1
SW-620 = test system: SW-620
Malme-3M = test system: Malme-3M
EKVX = test system: EKVX
HCT-116 = test system: HCT-116
SK-MEL-28 = test system: SK-MEL-28
OVCAR-8 = test system: OVCAR-8
MOLT-4 = test system: MOLT-4
OVCAR-4 = test system: OVCAR-4
SF-539 = test system: SF-539

Measured: GI50

COC(=O)C(Cc1c[nH]c2ccccc12)NP(=O)(O)OCC1OC(n2ccc(N)nc2=O)C(O)C1O (stereo not given)
inactive: HL-60 > 100 µM | CCRF-CEM 88.3 µM | K562 > 100 µM | LOX IMVI > 100 µM | HT-29 > 100 µM | RPMI-8226 > 100 µM | ACHN > 100 µM | UO-31 > 100 µM | SNB-19 > 100 µM | IGROV-1 > 100 µM | SW-620 > 100 µM | Malme-3M > 100 µM | EKVX > 100 µM | HCT-116 > 100 µM | SK-MEL-28 > 100 µM | OVCAR-8 > 100 µM | MOLT-4 > 100 µM | OVCAR-4 > 100 µM | SF-539 > 100 µM

CC(=O)OC(OC(C)=O)n1cc(C=O)c2ccccc21
inactive: HL-60 > 100 µM | CCRF-CEM > 100 µM | K562 > 100 µM | LOX IMVI > 100 µM | HT-29 > 100 µM | RPMI-8226 > 100 µM | ACHN > 100 µM | UO-31 63.5 µM | SNB-19 > 100 µM | IGROV-1 > 10 µM | SW-620 > 100 µM | HCT-116 > 100 µM | SK-MEL-28 > 100 µM | OVCAR-8 > 100 µM | MOLT-4 > 100 µM | OVCAR-4 > 100 µM

C[Si](C)(C)/C=C/CN1C(=O)CCC1=O
inactive: HL-60 > 100 µM | CCRF-CEM > 100 µM | K562 > 100 µM | LOX IMVI > 100 µM | HT-29 > 100 µM | RPMI-8226 > 100 µM | ACHN > 100 µM | UO-31 > 100 µM | SNB-19 > 100 µM | IGROV-1 > 100 µM | SW-620 > 100 µM | Malme-3M > 100 µM | EKVX > 100 µM | HCT-116 > 100 µM | SK-MEL-28 > 100 µM | MOLT-4 > 10 µM | SF-539 > 100 µM

O=c1[nH]nc(Cc2ccc(Cl)cc2)n1CCO
inactive: HL-60 > 100 µM | K562 > 100 µM | LOX IMVI > 100 µM | HT-29 > 100 µM | RPMI-8226 > 100 µM | ACHN > 100 µM | UO-31 > 100 µM | SNB-19 > 100 µM | IGROV-1 > 100 µM | SW-620 > 100 µM | Malme-3M > 100 µM | EKVX > 100 µM | HCT-116 > 100 µM | SK-MEL-28 > 100 µM | OVCAR-8 > 100 µM | MOLT-4 > 100 µM | OVCAR-4 > 100 µM | SF-539 > 100 µM
